According to patent publication US4758555A, “Method for treating convulsions and epilepsy with organic copper compounds” (priority 1986, dated 1988):
Entries after “also recorded” stand apart in the source; their conditions may differ.

Columns and labels:
[1] = Maximal Electroshock Seizure Test; assay type: in vivo, male Carworth Farms #1 mice or Sprague-Dawley rats
[2] = Sleep time / hypnosis or sedation; assay type: in vivo; conditions: Table IX, intraperitoneal, 65 mg/kg
Description: In Phase I identification of anticonvulsant activity, test compounds were given intraperitoneally (IP) at 30, 100, 300 and, in some cases, 600 milligrams per kilogram (mg/kg) of body weight and protection against Maximal Electroshock and/or Metrazol-induced seizures was determined 30 minutes, 4 hours, or later. […] Subsequently the routine protocol was modified and certain of the test compounds (see Tables, infra) re-evaluated following subcutaneous (SC) injection at periods of up to 8 hours post injection. Subcutaneous administration can be helpful in determining whether or not hypnotic activity can be distinguished from anticonvulsant activity based upon the decreased rate of absorption associated with this route of administration as opposed to the more rapid rate of absorption associated with IP administration.

[3] = Anticonvulsant activity, both or unspecified seizure models; assay type: in vivo, male Carworth Farms #1 mice or Sprague-Dawley rats
[4] = cited from earlier work
[5] = known from literature; cited from earlier work
[6] = 85 mg/kg subcutaneous; cited from earlier work
[7] = mouse, in vivo; cited from earlier work

## CCC1(CCC(C)C)C(=O)[N-]C(=O)NC1=O.CCC1(CCC(C)C)C(=O)[N-]C(=O)NC1=O.[Cu+2] [Cu(II)(amobarbital)2]
[1]; Table IX, maximal electroshock, intraperitoneal, 65 mg/kg, 5 animals
  Protection Against Seizure: 100 Percent protected
[2]
  Sleep (in words): All animals slept
[2]; 5 animals
  Average Sleep Time: 16 min
[3]; in vivo
  Potency or effectiveness relative to a comparator (in words): more potent anticonvulsant than sodium (Na) amobarbital

## O=C1NC(=O)C(c2ccccc2)(c2ccccc2)N1 [Dilantin, Phenytoin, reference compound]
[1]; Mus musculus, Table X, IP, at time of peak activity, read-out: ED50 for inhibition of seizures, MES (Phase II)
  ED50: 7 mg/kg
[3]; Phase II
  Time of peak effect: 1 h
[3]; Table X, IP, challenge time
  Time of peak activity (Phase II): 1 h
[4]
  Known effect of parent drug on seizures: known to only inhibit Maximal Electroshock-induced seizures but it potentiates Metrazol-induced seizures

## O=C(O)c1ccccc1O [salicylate]
[5]
  Convulsions / CNS toxicity at high doses: cause convulsions at high doses

## C1CCc2nnnn2CC1 [Metrazol, pentylenetetrazol]
[6]
  Seizures produced: greater than 97 % of mice
[7]
  CNS stimulation / rotating rod toxicity (known): potent central nervous system stimulant; also recorded: marked rotating rod toxicity
